Results on five molecules are retold here after patent publication US20260232642A1, “RNA-BINDING MOLECULES WITH A SMALL CORE SCAFFOLD (R-SCORE) AND USES THEREOF” (Max-Planck-Gesellschaft zur Förderung der Wissenschaften …, priority 2022, published 2026).

“Also recorded” adds a separate entry of the source. Like-named read-outs stand apart in the source and are kept apart here.

In experiment [1] the test system is precursor microRNA-17 hairpin (pre-miR-17 hp). Put plainly: Differential scanning fluorimetry (DSF), pre-miR-17 hairpin. It is filed as binding. The following applies: 60 uM compound, 1 μM hairpin in PBS, Tm of compound minus Tm of DMSO control. On the procedure:
(§1) To measure the binding between compounds and precursor microRNA-21 hairpin (pre-miR-21 hp) or precursor microRNA-17 hairpin (pre-miR-17 hp), DSF was performed as previously described with modification (ACS Chem. Biol. 2017, 12, 2, 435-443). Precursor microRNA hairpin was dissolved in PBS and annealed by briefly heating to 95° C. for 3 min and slowly cooling to rt. Assay was performed in duplicates using white qPCR 8-strips (VWR) with a total volume of 10 μL in PBS. The total reaction consisted of 1 μM precursor microRNA hairpin, 1% test compound (DMSO dilution) and 2×SYBR GreenII (Thermo Fisher Scientific). Compounds were incubated with precursor microRNA hairpin at for 10 min at rt, then SYBR GreenII was added to each well, mixed and incubated 10 min at rt. The strips were spined and loaded to the RT-PCR detection system (BIO-RAD CFX Connect), the fluorescence intensity was obtained every 1° C. for 30 s in the range of 20° C. to 80° C.
(§2) The melting temperature (Tm) was determined by the maximum of the negative of the first derivative of the fluorescence vs temperature melting curves. The ΔTm was calculated by the Tm value of compound subtract the Tm value of the DMSO control.
For orientation: DSF heats the sample and reads unfolding from a dye or from intrinsic fluorescence.

Experiment [2] has as its system MDA-MB-231 cells. The experiment in a line: MTT assay, MDA-MB-231. Type of experiment: cell-based, human. The following applies: breast cancer cell line, read-out: Cell lines IC50 [μM] MDA-MB-231. On the procedure: (§3) MAD-MB-231, MCF-7 and JAR cells were cultured in Dulbecco's modified Eagle's (DMEM) medium supplemented with 10% Fetal Bovine Serum (FBS), 100 u/mL penicillin-streptomycin. Jurkat, Molt-4 and Ramos cells were cultured in Roswell Park Memorial Institute (RPMI) 1640 medium with 10% Fetal Bovine Serum (FBS), 100 u/mL penicillin-streptomycin. All cell lines grown in an incubator with humidified 5% CO2 at 37° C.
(§4) Jurkat, Molt-4 and Ramos cells were collected and seeded into 96-well plates at a density of 8000-10000 per well and treated with compounds. MCF-7, MDA-MB-231 and JAR cells were collected and seeded into 96-well plates at a density of 2000-3000 per well and cultured overnight to adherent before treat with compounds. After exposed to increasing concentrations of compounds for 72 h, the cells in each well were mixed with 20 μL of 5 mg/ml MTT (3-(4,5-dimethylthiazol-2-yl)-2,5-diphenyltetrazolium bromide) for 2 h, then add 50 μL of 20% SDS/0.01 M HCl incubated overnight, and detected the absorbance at a wavelength of 570 nm.
(§5) Inhibition rate was calculated using the equation: […]
(§6) The IC50 values were calculated by using GraphPad Prism 9 software fitting to a dose-response inhibition equation.

The next experiment relates to JAR cells. Put plainly: MTT assay, JAR. It is filed as cell-based, human. The following applies: 72 h, choriocarcinoma cell line, read-out: Cell lines IC50 [μM] JAR. On the procedure: as §3, §4, §5, §6
Background: Formazan colour is commonly taken as a measure of viable cells.

In experiment [3] the test system is MDA-MB-231 cells. The experiment in a line: Colony formation assay. Type of experiment: cell-based, human. The following applies: for antiproliferation activity against MDA-MB-231 cell line: 6 days, crystal violet, vs DMSO; for antiproliferation activity compared to other selected compounds: MDA-MB-231, ranking among A10, A11, B2, B5, B8, B9; for inhibition of MDA-MB-231 cell proliferation at 10 μM: concentration of 10 μM. On the procedure: as §3
MDA-MB-231 cells were collected and seeded into 24-well plates with the density of 1000 cells per well and cultured overnight. The medium was exchanged and supplemented with different compounds and concentrations every three days. 6 days later, cells were washed with PBS and fixed by 4% paraformaldehyde solution. After 15 min fix, the paraformaldehyde solution was washed with PBS and was then stained with 0.1% (w/v) crystal violet. After 15 min, the cells were washed and photographed.

The next experiment concerns MCF-7 cells. The experiment in a line: MTT assay, MCF-7. Type of experiment: cell-based, human. The following applies: breast cancer cell line, read-out: Cell lines IC50 [μM] MCF-7. As for the experimental part:
as §3, §4, §5, §6

Experiment [4] deals with precursor microRNA-21 hairpin (pre-miR-21 hp). The experiment in a line: Differential scanning fluorimetry (DSF), pre-miR-21 hairpin. Type of experiment: binding. The following applies: 60 uM compound, 1 μM hairpin in PBS, Tm of compound minus Tm of DMSO control. On the procedure: as §1, §2
The next experiment concerns Molt-4 cells. The experiment in a line: MTT assay, Molt-4. It is filed as cell-based, human. Conditions: acute leukemia cell line, read-out: Cell lines IC50 [μM] Molt-4. On the procedure:
as §3, §4, §5, §6

For a further experiment, the system named is Jurkat cells. Put plainly: MTT assay, Jurkat. It is filed as cell-based, human. The following applies: 72 h, acute leukemia cell line, read-out: Cell lines IC50 [μM] Jurkat. As for the experimental part:
as §3, §4, §5, §6

Another experiment deals with Ramos cells. The experiment in a line: MTT assay, Ramos. Type of experiment: cell-based, human. Conditions: 72 h, Burkitt lymphoma cell line, read-out: Cell lines IC50 [μM] Ramos. On the procedure: as §3, §4, §5, §6

Broadly, the IC50 is the concentration that gives 50% inhibition.

As for `C=CCN1C(C#N)C(c2ccc(-c3ccc(C(F)(F)F)cc3)cc2)C1Cn1cc(-c2ccccn2)nn1` (stereo not shown) [Compound A10, 1-allyl-4-((4-(pyridin-2-yl)-1H-1,2,3-triazol-1-yl)methyl)-3-(4′-(trifluoromethyl)-[1,1′-biphenyl]-4-yl) azetidine-2-carbonitrile], the “ΔTm (pre-miR-17 hp) @60 uM [° C.]” value in experiment [1] was 0 °C. Besides, the IC50 in the experiment on MDA-MB-231 cells [2] (Homo sapiens, MDA-MB-231, 72 h) was above 20 µM; in the experiment with JAR cells (Homo sapiens), above 20 µM; in the experiment with MCF-7 cells (Homo sapiens, MCF7, 72 h), above 20 µM; in the experiment with Molt-4 cells (Homo sapiens, MOLT-4, 72 h), 1.6 µM; in the experiment on Jurkat cells (Homo sapiens, Jurkat), 7.51 µM; in the experiment on Ramos cells (Homo sapiens, Ramos) it was 8.87 µM. In the experiment with MDA-MB-231 cells [3], the “antiproliferation activity against MDA-MB-231 cell line” value is “can inhibit MDA-MB-231 cells proliferation; also recorded: exhibited antiproliferation activity against MDA-MB-231 cell line in a dose-dependent manner”. Besides, the “ΔTm (pre-miR-21 hp) @60 uM [° C.]” value in experiment [4] amounted to 0 °C.
Turning to `CNc1nc(N2CC(c3ccc(-c4c(C)noc4C)cc3)C2C#N)nc2ccccc12` (stereo not shown) [Compound B2, 3-(4-(3,5-dimethylisoxazol-4-yl)phenyl)-1-(4-(methylamino)quinazolin-2-yl) azetidine-2-carbonitrile], in the experiment with MDA-MB-231 cells [3], the “antiproliferation activity against MDA-MB-231 cell line” value is listed as “can inhibit MDA-MB-231 cells proliferation; also recorded: exhibited antiproliferation activity against MDA-MB-231 cell line in a dose-dependent manner”, the “antiproliferation activity compared to other selected compounds” value was “better antiproliferation ability; also recorded: most potent antiproliferation activity” and the “inhibition of MDA-MB-231 cell proliferation at 10 μM” value is “fully inhibited”. In addition, in the experiment on Molt-4 cells (72 h), the IC50 was determined as 4.67 µM. Also, in the experiment on Jurkat cells, the IC50 turned out to be 4.49 µM. For the same molecule, the IC50 in the experiment with Ramos cells is 3.03 µM.
In the case of `CNc1nc(N2CC(c3ccc(-c4ccc(C(F)(F)F)cc4)cc3)C2C#N)nc2ccccc12` (stereo not shown) [Compound B5, 1-(4-(methylamino)quinazolin-2-yl)-3-(4′-(trifluoromethyl)-[1,1′-biphenyl]-4-yl) azetidine-2-carbonitrile], the “ΔTm (pre-miR-17 hp) @60 uM [° C.]” value in experiment [1] came to 0 °C. Further, the IC50 was found to be 6.95 µM in the experiment on MDA-MB-231 cells [2] (Homo sapiens, MDA-MB-231, 72 h); 1.44 µM with JAR cells (Homo sapiens); 5.61 µM in the experiment with MCF-7 cells (Homo sapiens, MCF7, 72 h); 8.42 µM in the experiment with Molt-4 cells (Homo sapiens, MOLT-4, 72 h); 5.9 µM in the experiment on Jurkat cells (Homo sapiens, Jurkat); 2.8 µM in the experiment with Ramos cells (Homo sapiens, Ramos). Besides, the “antiproliferation activity against MDA-MB-231 cell line” value in the experiment on MDA-MB-231 cells [3] was “can inhibit MDA-MB-231 cells proliferation; also recorded: exhibited antiproliferation activity against MDA-MB-231 cell line in a dose-dependent manner”. Moreover, the “antiproliferation activity compared to other selected compounds” value in the experiment with MDA-MB-231 cells [3] is recorded as “most potent antiproliferation activity”. For the same molecule, the “inhibition of MDA-MB-231 cell proliferation at 10 μM” value in the experiment with MDA-MB-231 cells [3] was “fully inhibited”. In addition, the “ΔTm (pre-miR-21 hp) @60 uM [° C.]” value in experiment [4] worked out at 0 °C.
With `CNc1nc(N2CC(c3ccc(-c4ccc5nc[nH]c5c4)cc3)C2C#N)nc2ccccc12` (stereo not shown) [Compound B9, 3-(4-(1H-benzo[d]imidazol-6-yl)phenyl)-1-(4-(methylamino)quinazolin-2-yl) azetidine-2-carbonitrile], the “ΔTm (pre-miR-17 hp) @60 uM [° C.]” value in [1] is −1 °C. The IC50 in the experiment on MDA-MB-231 cells [2] (72 h) turned out to be 4.12 µM; in the experiment with JAR cells, 1.82 µM; in the experiment on MCF-7 cells (72 h), 1.78 µM; with Molt-4 cells (72 h), 4.14 µM; in the experiment with Jurkat cells, 3.17 µM; in the experiment with Ramos cells, 5.54 µM. Further, in the experiment with MDA-MB-231 cells [3], the “antiproliferation activity against MDA-MB-231 cell line” value was “can inhibit MDA-MB-231 cells proliferation; also recorded: exhibited antiproliferation activity against MDA-MB-231 cell line in a dose-dependent manner”. Also, the “ΔTm (pre-miR-21 hp) @60 uM [° C.]” value in experiment [4] is −1 °C.
Take `CNc1nc(N2CC(c3ccc(-c4ccc5nc[nH]c5c4)cc3)C2C#N)nc2ccccc12` (stereo not shown) [Compound B10, 3-(4-(1H-benzo[d]imidazol-6-yl)phenyl)-1-(4-(methylamino)quinazolin-2-yl) azetidine-2-carbonitrile]: the “ΔTm (pre-miR-17 hp) @60 uM [° C.]” value in [1] turned out to be 0 °C. In addition, the 50% inhibitory concentration (IC50) is 10.8 µM with MDA-MB-231 cells [2] (72 h); 4.78 µM in the experiment on JAR cells; 8.24 µM with MCF-7 cells (72 h); 12.1 µM in the experiment on Molt-4 cells (72 h); 11.2 µM in the experiment on Jurkat cells; 8.27 µM in the experiment on Ramos cells (Homo sapiens, Ramos). The “ΔTm (pre-miR-21 hp) @60 uM [° C.]” value in [4] was determined as 0 °C.
